Results published in patent publication US11903385B1, “1-(butyl(2-hydroxy-3-(naphthalen-1-yloxy)propyl)amino)-3-(naphthalen-2-yloxy)propan-2-ol as an eco-friendly insecticidal agent against Spodoptera littoralis (boisd.)” (KING FAISAL UNIVERSITY, priority 2023, dated 2024).
≈ marks a conversion by molar mass, not a printed value. Like-named read-outs stand apart in the source and are kept apart here.

Tests used:
S. littoralis larvae = assay: Insecticidal leaf dip bioassay screening; conditions: 72 h; for Toxicity ratio: fenoxycarb's LC50 / the compound's LC50; for LC50: Spodoptera littoralis, foliar
Protocol: Until usage, the stocks were kept in a refrigerator. The target substance test results were noted & the concentrations needed to destroy 50% (LC50) of S. littoralis larvae were calculated. The target compound was employed in five different concentrations, and 0.1% Tween 80 was employed as a surfactant. Castor bean leaf discs (nine centimeters in diameter) were dipped in the concentration under test for ten seconds, then fed to 2th & 4th larvae, which were roughly the same size and housed in glass jars (five lb). Each action was carried out 3 times with ten larvae each. The mortality equalized via Abbott's formula. Calculations of mortality setback line were measurably rummage via probity analysis. […] The mortality results of larval insect were estimated through employing probit analysis through a statistics (LDP-line) equation which estimate the LC50 values with 95% fiducially limits of lower, upper confidence limit and slope.

aquatic insects = conditions: cited from earlier work
[1] = read-out: LC50 (mg/L) at 95%, 2nd instar larvae, after 72 h of treatment
[2] = read-out: LC50 (mg/L) at 95%, 4th instar larvae, after 72 h of treatment

Structure (SMILES)	Toxicity ratio (S. littoralis larvae; 2nd instar larvae)	Toxicity ratio (S. littoralis larvae; 4th instar larvae)	LC50 (S. littoralis larvae; [1])	LC50 (S. littoralis larvae; [2])	LC50 (aquatic insects)
CCOC(=O)NCCOc1ccc(Oc2ccccc2)cc1 [Fenoxycarb]	1	1	2.73 mg/L (≈ 9.06 µM)	9.18 mg/L (≈ 30.5 µM)	
CCCCN(CC(O)COc1ccc2ccccc2c1)CC(O)COc1cccc2ccccc12 (stereo not drawn) [III, 1-(butyl(2-hydroxy-3-(naphthalen-1-yloxy)propyl)amino)-3-(naphthalen-2-yloxy)propan-2-ol]	0.253	0.551	~10.8 mg/L (≈ 22.7 µM)	~16.6 mg/L (≈ 35.2 µM)	
CCc1ccc(C(=O)NN(C(=O)c2cc(C)cc(C)c2)C(C)(C)C)cc1 [tebufenozide]					100 to 1000 µg/mL
